From article PMC11677535, “Eremophilane- and Acorane-Type Sesquiterpenes from the Deep-Sea Cold-Seep-Derived Fungus Furcasterigmium furcatum CS-280 Cultured in the Presence of Autoclaved Pseudomonas aeruginosa QDIO-4” (Marine Drugs, 2024)

Target: T1, COX-2 (cyclooxygenase-2) (Homo sapiens, UniProt P35354)
T1 construct: gene PTGS2
T1 sequence (P35354 18-604): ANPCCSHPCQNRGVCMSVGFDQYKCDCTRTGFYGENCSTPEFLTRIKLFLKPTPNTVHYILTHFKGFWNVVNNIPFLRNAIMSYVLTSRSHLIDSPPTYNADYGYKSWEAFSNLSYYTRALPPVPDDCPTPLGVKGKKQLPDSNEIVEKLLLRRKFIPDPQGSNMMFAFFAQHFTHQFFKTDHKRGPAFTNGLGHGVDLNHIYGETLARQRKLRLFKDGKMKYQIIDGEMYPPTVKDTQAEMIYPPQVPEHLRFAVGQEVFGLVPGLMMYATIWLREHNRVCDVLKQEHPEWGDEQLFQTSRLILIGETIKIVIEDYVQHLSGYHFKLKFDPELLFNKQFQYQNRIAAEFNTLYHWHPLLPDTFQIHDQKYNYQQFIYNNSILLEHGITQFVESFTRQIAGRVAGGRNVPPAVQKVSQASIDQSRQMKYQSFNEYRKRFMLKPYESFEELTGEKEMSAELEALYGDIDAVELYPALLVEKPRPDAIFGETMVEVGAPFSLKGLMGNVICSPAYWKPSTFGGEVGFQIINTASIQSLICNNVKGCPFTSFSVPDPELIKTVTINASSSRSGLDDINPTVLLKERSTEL
Assay: biochemical

| SMILES | IC50 [µM] |
| --- | --- |
| CC(=O)O[C@H]1C=C2C[C@@]3(O)OC[C@@]4(C)O[C@]43C[C@]2(C)[C@@H](C)[C@H]1O [compound 3, fureremophilane C] | 93.4 |
| CC(=O)O[C@H]1[C@@H](O)C=C2C[C@@]3(O)OC[C@@]4(C)O[C@]43C[C@]2(C)[C@H]1C [compound 2, fureremophilane B] | 123 |
